The values that follow come from patent publication US20260182575A1, “MOLECULES HAVING PESTICIDAL UTILITY AND INTERMEDIATES AND PROCESSES RELATED THERETO” (CORTEVA AGRISCIENCE LLC, priority 2022, published 2026).

Common to all, as to assay type: in vivo
In assay [1] the test system is Western Corn Rootworm (Diabrotica virgifera virgifera, DIABVI, WCR). The assay can be described thus: Bioassay 8: western corn rootworm, soil drench, corn root protection. Particulars: AI alone, DIABVI, soil drench, 13 days. The procedure:
Corn seeds were planted in steam pasteurized soil filled greenhouse pots. Western corn rootworm Diabrotica virgifera virgifera eggs supplied from the Corteva Agriscience in Johnston, IA US, were suspended in a 0.08% agar solution added into the soil. Stock solutions of F1 and active ingredients were prepared at a concentration of either 250 or 500 ugai/10 mL for F1 and active ingredients at the ratios of (F1:AI) 1:0.004; 1:0.01; 1:0.02; 1:0.04; 1:0.08; 1:0.1; 1:0.15; 1:0.2; 1:0.4; 1:2; or 1:4, using a 1:1 solution of acetone:water as a diluent. A soil application of solutions were applied as a 10 mL drench over the soil. Plants were grown in the greenhouse for 13 days at 25 C after which the roots were removed from the soil, washed, and measured to determine the length of the median nodal roots. The measured lengths were compared to the infested and un-infested untreated checks to determine the mean percent control offered to protect the corn roots.

In assay [2] the test system is Fall Armyworm (Spodoptera frugiperda, LAPHFR, FAW). The assay can be described thus: Bioassay 7: fall armyworm, artificial diet, 96 well plate. The procedure:
(§1) The test solutions were tested against CEW, FAW, BAW, and SBL using the following procedure: an artificial lepidopteran diet (Multispecies Lepidopteran Diet, Southland Products) was distributed in 96 well plate. Twenty μL of test solution was pipetted onto a cell in the bioassay plate. […] Each treatment was replicated 5 times for each species. Approximately five first instar CEW, FAW, BAW, or SBL larva were placed on top of the diet in each cell and was contained with a clear perforated adhesive lid. Test trays were held at approximately 25° C. and ambient relative humidity prior to grading. After five days, the number of cells where all the larvae were dead were recorded as 100% and averaged across all replicates; then the percent control was measured using Abbott's correction formula (W. S. Abbott, J. Econ. Entomol. 18 (1925), pp. 265-267) as follows:
(§2) where X=No. of live larvae on solvent check and Y=No. of live larvae on treated diet. In Table 7 the “Expected % Control” was calculated using the method described in Colby S. R., Weeds, 1967, 15, 20-22. Bioassay 8: Western Corn Rootworm (Diabrotica virgifera virgifera, DIABVI, “WCR”)

The subject of assay [3] is Corn Earworm (Helicoverpa zea, HELIZE, CEW). The assay can be described thus: Bioassay 7: corn earworm, artificial diet, 96 well plate. Conditions: AI alone at 0.4 wt %. The procedure:
as §1, §2

In assay [4] the test system is Soybean Looper (Chrysodeixis includens, PSEPIN, SBL). The assay can be described thus: Bioassay 7: soybean looper, artificial diet, 96 well plate. Conditions: CL; AI alone at 0.4 wt %. The procedure:
as §1, §2

Assay [5] relates to Beet Armyworm (Spodoptera exigua, LAPHEG, BAW). The assay can be described thus: Bioassay 7: beet armyworm, artificial diet, 96 well plate. Particulars: AI alone at 0.4 wt %. The procedure:
as §1, §2

Assay [6] relates to Fall Armyworm (Spodoptera frugiperda, LAPHFR, FAW). Briefly: Bioassay 4: fall armyworm, artificial diet, 128-cell tray. Particulars: AI alone. The procedure: (§3) Stock solutions were prepared with F1 as well as for each of the active ingredients individually. Test solutions were prepared from the stock solutions. Test solutions were prepared containing F1, the individual active ingredients, and mixtures of F1 with each of the active ingredients. The test solution for F1 was prepared by adding 500 μL of the stock solution to a 25 mL glass vial, then adding 500 μL of a 9:1 mixture of acetone:water. The individual active ingredients were prepared by adding 500 μL of stock solution to a 25 mL glass vial, then adding 500 μL of a 9:1 mixture of acetone:water. The test solutions containing mixtures of F1, and the individual active ingredients were prepared by adding 500 μL of the active ingredient stock solution to a 25 mL glass vial, followed by 500 μL of the F1 stock solution, creating a test solution containing 0.04% (w/v) of F1 and 0.4% (w/v) of the active ingredient. Each test solution was serially diluted to create desired doses of test solutions (F1 at 0.04% (w/v), 0.004% (w/v), 0.0004% (w/v), 0.00004% (w/v), 0.000004% (w/v), and 0.0000004% (w/v) and active ingredients at 0.4% (w/v), 0.04% (w/v), 0.004% (w/v), 0.0004% (w/v), 0.00004% (w/v), and 0.000004% (w/v)).
(§4) The test solutions were tested against CEW, FAW, and SBL using the following procedure: an artificial lepidopteran diet (Multispecies Lepidopteran Diet, Southland Products) was distributed in 128-cell bioassay trays (Frontier Agricultural Sciences™). 50 μL of test solution was pipetted into a cell in the bioassay tray. (The test solution doses of 0.04% (w/v), 0.004% (w/v), 0.0004% (w/v), 0.00004% (w/v), 0.000004% (w/v), and 0.0000004% (w/v) translated to concentrations of 5, 0.5, 0.05, 0.005, 0.0005, and 0.00005 μg/cm^2 on the diet, respectively.) A reference treatment (solvent check) was treated with the diluent only. Each treatment was replicated 8 times for each species. A 2nd instar CEW, FAW, or SBL larva was placed on top of the diet in each cell and was contained with a clear perforated adhesive lid. Test trays were held at approximately 26° C. and ambient relative humidity (RH) prior to grading.
(§5) After 5 days, the number of live larvae were recorded from each cell and percent control was measured using Abbott's correction formula (W. S. Abbott, J. Econ. Entomol. 18 (1925), pp. 265-267) as follows:
(§6) where X=No. of live larvae on solvent check and Y=No. of live larvae on treated diet. In Table B4 the “Expected % Control” was calculated using the method described in Colby S. R., Weeds, 1967, 15, 20-22. Bioassay 5: Neotropical Brown Stink Bug (Euschistus heros, EUSCHE, “BSB”).

The test system of assay [7] is Brown Planthopper (Nilaparvata lugens, NILALU, BPH). Briefly: Bioassay 6: brown planthopper, sprayed rice seedlings. Conditions: AI alone, AI Rate 0.049 g/ha, 6 days. The procedure: At these rates, F1 and the individual active ingredients were tested at a ratio of 1:1. […] F1 and triflumezopyrim were tested at a ratio of 16:1. Test solutions were prepared containing F1, the individual active ingredients, and mixtures of F1 with each of the active ingredients. Test solutions were prepared by weighing 5 mg of each test chemistry (either alone or in combination depending on the treatment) into a 25 mL glass vial. Next, 1 mL of acetone was added to each vial to dissolve the test chemistries, followed by 19 mL of water with 0.125% Tween 20 adjuvant. This test solution represented the 50 g/ha treatment, which was then serially diluted four-fold to create the three lower rates of 12.5, 3.125, and 0.78 g/ha. Triflumezopyrim was prepared in a similar manner, but two additional serial dilutions were conducted to create solutions representing 6 rates of 12.5, 3.125, 0.78, 0.19, 0.049, and 0.012 g/ha. The higher two doses were discarded, and the four lower doses were used for testing. Each rate was replicated four times, and solvent blanks were used as control treatments.
Five (5) rice seedlings (10-12 days old) planted in 3-inch pots were used as test plants. Rice seedlings were grown in soil and the soil was covered with a 2% agar solution. The test solutions were applied to test plants using a Devries laboratory research sprayer, set to spray at 200 liters per hectare (L/ha) using a TeeJet hollow cone nozzle. Following application, the rice seedlings were dried for 1 hour, after which a single clear plastic tube (2 inches in diameter×12 inches in height) was placed over the seedlings in each pot. The tube was pushed down into the agar to create a sealed test chamber. The agar prevented insects from hiding in the soil and made adult collection and grading easier. Ten to fifteen (10-15) 5th instar BPH nymphs were transferred to each test chamber using a vacuum aspirator. Immediately following BPH infestation, the test chamber was covered with a piece of grade 90 cheesecloth and secured with a rubber band, sealing the test chamber. The test chambers were held at 25° C. for 6 days, after which the total number of live insects was counted in each test chamber. Percent control was measured using Abbott's correction formula (W. S. Abbott, J. Econ. Entomol. 18 (1925), pp. 265-267) as follows:
where X=No. of live insects on solvent check and Y=No. of live insects in treated chambers. In Table B6 the “Expected % Control” was calculated using the method described in Colby S. R., Weeds, 1967, 15, 20-22. Bioassay 7: Corn Earworm (Helicoverpa zea, HELIZE, “CEW”), Fall Armyworm (Spodoptera frugiperda, LAPHFR, “FAW”), Beet Armyworm (Spodoptera exigua, LAPHEG, “BAW”),and Soybean Looper (Chrysodeixis includens, PSEPIN, “SBL”).

The subject of assay [8] is Western Flower Thrips (Frankliniella occidentalis, FRANOC, WFT). Briefly: Bioassay 3: western flower thrips, cotton leaf disc dip. Particulars: AI alone at 1:1 rate to F1 3.125 (10^-6 Wt %), 3 days. The procedure:
Stock solutions of F1 and various active ingredients were prepared initially at a concentration of 0.1 mg/mL using acetone as a diluent. Stock solutions were prepared with F1 as well as for each of the active ingredients individually. Test solutions were prepared from the stock solutions. Test solutions were prepared containing F1, the individual active ingredients, and mixtures of F1 with each of the active ingredients. The test solutions for F1 and the individual active ingredients were prepared by adding 500 μL of stock solution to a 25 mL glass vial, then adding 500 μL of acetone, followed by the addition of 9 mL water with 0.025% Tween® 20 to create a 0.0005% (w/v) solution. The test solutions containing mixtures of F1, and the individual active ingredients were prepared by adding 500 μL of the active ingredient stock solution to a 25 mL glass vial, followed by 500 μL of the F1 stock solution, then by the addition of 9 mL water with 0.025% Tween® 20 to create a test solution containing 0.0005% (w/v) F1 and 0.0005% (w/v) of the active ingredient. Each test solution was serially diluted to create desired doses of test solutions (0.0005% (w/v), 0.000125% (w/v), 0.00003125% (w/v), 0.0000078% (w/v), and 0.00000195% (w/v)).
The test solutions were tested against WFT using the following procedure: Leaf discs (2.7 cm in diameter) were cut from the true leaves of cotton plants. Leaf discs were dipped into the test solutions and shaken to ensure complete coverage of the leaf disc and then placed in Millipore® PetriSlides containing a filter paper disc. Treated leaf discs were air dried for approximately 1 hour. Each leaf disc was infested with 5 WFT (9-10-day old nymphs) by placement on each leaf disc, and the PetriSlides were capped to prevent escape. Each treatment was replicated three times and the test treatments were held at approximately 26° C. and ambient relative humidity (RH) prior to grading. Reference discs (solvent check) were treated with the diluent only. Evaluation was conducted by counting the number of live WFT under magnification 3 days after treatment. Percent control was measured using Abbott's correction formula (W. S. Abbott, J. Econ. Entomol. 18 (1925), pp. 265-267) as follows:
where X=No. of live nymphs on solvent check leaf discs and Y=No. of live nymphs on treated leaf discs. In Table B3 the “Expected % Control” was calculated using the method described in Colby S. R., Weeds, 1967, 15, 20-22. Bioassay 4: Corn Earworm (Helicoverpa zea, HELIZE, “CEW”), Fall Armyworm (Spodoptera frugiperda, LAPHFR, “FAW”), and Soybean Looper (Chrysodeixis includens, PSEPIN, “SBL”).

In assay [9] the test system is Corn Earworm (Helicoverpa zea, HELIZE, CEW). Briefly: Bioassay 4: corn earworm, artificial diet, 128-cell tray. Conditions: AI alone. The procedure: as §3, §4, §5, §6
The subject of assay [10] is Soybean Looper (Chrysodeixis includens, PSEPIN, SBL). Briefly: Bioassay 4: soybean looper, artificial diet, 128-cell tray. Particulars: AI alone, 0.000004 wt %. The procedure: as §3, §4, §5, §6

For the compound `CN/C(=N\[N+](=O)[O-])NCc1cnc(Cl)s1` [Clothianidin], the “Average % Control AI” value in assay [1] (UgActive AI 1) was 14.8%.

`CC1(C)[C@H](C(=O)O[C@H](C#N)c2cccc(Oc3ccccc3)c2)[C@@H]1C=C(Br)Br` [Deltamethrin]: the “Average % Control AI” value in assay [1] (UgActive AI 1) worked out at 17.0%; in assay [2] (AI alone at 0.004 wt %), 0.0%.

Turning to `CO/N=C(/C1=NOCCO1)c1ccccc1Oc1ncnc(Oc2ccccc2Cl)c1F` [Fluoxastrobin], the “Average % Control AI” value in [1] (UgActive AI 1) came out at 0.0%.

For the compound `OC(Cc1ccccc1Cl)(Cn1nc[nH]c1=S)C1(Cl)CC1` (stereo not shown) [Prothioconazole], the “Average % Control AI” value in [3] and in [1] (UgActive AI 20) was 0.0% in each case.

In the case of `Cn1cc(C(=O)Nc2ccccc2C2CC2C2CC2)c(C(F)F)n1` (stereo not shown) [Sedaxane], the “Average % Control AI” value in assay [4], in [5], in [3], in assay [1] (UgActive AI 10) and in assay [2] (AI alone at 0.4 wt %) was 0.0% in each case.

Regarding `CC1(C)CCC(=Cc2ccc(Cl)cc2)C1(O)Cn1cncn1` (stereo not shown) [Titriconazole], the “Average % Control AI” value in [5], in assay [3] and in [1] (UgActive AI 100) was 0.0% throughout.

Turning to Abamectin, the “Average % Control AI” value in assay [6] (0.00004 wt %) is given as 0.0%; in assay [7], 40.7%; in [8] it was 31.0%; in assay [9] (0.000004 wt %), 0.0%; in [9] (0.00004 wt %), 0.0%.

Take Inpyrfluxam: the “Average % Control AI” value in [4] was 0.0%; in assay [3], 12.5%; in assay [1] (UgActive AI 1), 0.0%; in [2] (AI alone at 0.4 wt %) it was 0.0%.

For Spinetoram, the “Average % Control AI” value in assay [6] (0.000004 wt %) came to 0.0%; in [10] it was 25.0%; in [7], 2.5%; in assay [9] (0.000004 wt %) it was 0.0%; in assay [9] (0.00004 wt %) it was 25.0%.

Regarding Thiabendazole, the “Average % Control AI” value in assay [5] came to 0.0%; in assay [3], 0.0%; in [1] (UgActive AI 50), 16.8%.
